Where two headings read alike, the source gives them in different places.
Assays:
JARID1A (KDM5A) = target: T1, JARID1A (KDM5A) (Homo sapiens, UniProt P29375); assay: AlphaScreen histone demethylase assay; assay type: biochemical
T1 sequence (P29375 12-797 limits assumed): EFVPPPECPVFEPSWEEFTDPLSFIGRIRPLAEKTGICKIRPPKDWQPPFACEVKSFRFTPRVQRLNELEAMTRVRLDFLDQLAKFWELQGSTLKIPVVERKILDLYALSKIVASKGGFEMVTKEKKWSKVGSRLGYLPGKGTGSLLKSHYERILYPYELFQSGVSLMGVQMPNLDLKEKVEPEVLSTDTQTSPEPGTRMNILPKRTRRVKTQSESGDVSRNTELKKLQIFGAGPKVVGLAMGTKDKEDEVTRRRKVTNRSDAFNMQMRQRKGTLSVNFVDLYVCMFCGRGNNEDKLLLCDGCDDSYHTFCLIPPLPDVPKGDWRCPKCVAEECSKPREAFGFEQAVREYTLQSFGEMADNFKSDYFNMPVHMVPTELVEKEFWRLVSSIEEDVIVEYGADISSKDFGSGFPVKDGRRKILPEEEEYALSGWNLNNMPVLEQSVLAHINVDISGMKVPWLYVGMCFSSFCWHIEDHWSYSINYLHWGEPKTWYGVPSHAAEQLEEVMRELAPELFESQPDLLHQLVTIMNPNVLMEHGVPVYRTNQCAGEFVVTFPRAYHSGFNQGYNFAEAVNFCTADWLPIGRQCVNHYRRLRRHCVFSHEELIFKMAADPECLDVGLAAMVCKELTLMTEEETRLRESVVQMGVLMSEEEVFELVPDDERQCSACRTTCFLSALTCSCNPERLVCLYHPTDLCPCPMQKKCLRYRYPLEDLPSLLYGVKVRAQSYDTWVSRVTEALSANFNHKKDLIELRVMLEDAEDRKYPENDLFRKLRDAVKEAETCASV

Tpa1p = target: T2, Tpa1p (Saccharomyces cerevisiae, UniProt P40032); assay: MALDI-TOF MS Tpa1p hydroxylation assay; assay type: biochemical
T2 construct: His6 (N); made in house; host or cells: E. coli BL21(DE3)
Method: MALDI-TOF MS OFD1/TPA1p hydroxylation assays13
For enzyme production, the reported procedures were used.13 E. coli BL21(DE3) cells transformed with pNIC28-His6-Ofd1 or pNIC28-His6-Tpa1pΔ2-20 were cultured to an OD600 of 0.6; recombinant protein production was induced through the addition of isopropyl β-D-1-thiogalactopyranoside (IPTG) to a concentration of 0.5 mM. The induced cultures were […]
incubated overnight at 18°C with shaking, then harvested. The induced cells were suspended in 500 mM NaCl, 40 mM imidazole, 50 mM HEPES pH 7.5, sonicated, and the His-tagged protein was purified by nickel affinity chromatography.13 Both Ofd1 and Tpa1p were buffer-exchanged into 500 mM NaCl, 5% glycerol, 1 mM DTT, 50 mM HEPES pH 7.5 following […]
consisted of Ofd1 (1 µM) or Tpa1p (2 µM) with 2OG (20 µM), L-ascorbic acid (100 µM), (NH4)2Fe(SO4)2 (50 µM), RPS23 peptide (amino acid sequence
-CONH2; 25 µM) and the […]
relevant inhibitor (initially prepared in 10% DMSO, diluted to 1% DMSO in the reaction mixture) all in 50 mM HEPES pH 7.5. Reactions were quenched after 2 min (Ofd1) or 4 min (Tpa1p) by the addition of formic acid to a final concentration of 1%. The extent of hydroxylation was monitored by MALDI-TOF MS, and the IC50 curve was fit to the data using […]
LC-MS PHD2 hydroxylation assays
The PHD2 RF-MS RapidFire liquid chromatography mass spectrometry (RF-MS) assay monitors turnover of a C-terminal oxygenase dependent domain (CODD) peptide substrate […]
-CONH2 and appearance of the hydroxylated peptide product
(Pro564) in an endpoint type assay format (typical enzyme incubation time of 15 minutes).
Tris(hydroxymethyl)aminomethane was from Fisher. Ferrous ammonium sulfate (FAS), 2-oxoglutarate (2OG) and L-ascorbic acid were from Sigma Aldrich; solutions of these were prepared freshly each day. All inhibition assays were carried out in 384-well polypropylene plates (Greiner Bio-One). PHD2 assays were performed in assay buffer (50 mM Tris.Cl pH […]
were prepared using an ECHO 550 acoustic dispenser (Labcyte) and dry dispensed into 384-well polypropylene assay plates. The final assay concentration of DMSO was kept constant at 0.5%. PHD2 protein was prepared at a concentration of 300 nM in assay buffer and 25 μl dispensed across each 384-well assay plate. […] Peptide charge states were monitored in positive mode. Ion chromatogram data were extracted for the +2 charge state and peak area data integrated using RapidFire Integrator software (Agilent). % conversion of the CODD peptide substrate to the +16 hydroxylated peptide was calculated using the equation: % conversion = 100 x hydroxylated / (hydroxylated + non-hydroxylated peptide). IC50 values were determined from non-linear regression plots using GraphPad prism. […]

[1] = isolated recombinant enzyme, 2 µM, read-out: IC50 Tpa1p

T2 sequence (P40032 with tags, fused parts or gaps): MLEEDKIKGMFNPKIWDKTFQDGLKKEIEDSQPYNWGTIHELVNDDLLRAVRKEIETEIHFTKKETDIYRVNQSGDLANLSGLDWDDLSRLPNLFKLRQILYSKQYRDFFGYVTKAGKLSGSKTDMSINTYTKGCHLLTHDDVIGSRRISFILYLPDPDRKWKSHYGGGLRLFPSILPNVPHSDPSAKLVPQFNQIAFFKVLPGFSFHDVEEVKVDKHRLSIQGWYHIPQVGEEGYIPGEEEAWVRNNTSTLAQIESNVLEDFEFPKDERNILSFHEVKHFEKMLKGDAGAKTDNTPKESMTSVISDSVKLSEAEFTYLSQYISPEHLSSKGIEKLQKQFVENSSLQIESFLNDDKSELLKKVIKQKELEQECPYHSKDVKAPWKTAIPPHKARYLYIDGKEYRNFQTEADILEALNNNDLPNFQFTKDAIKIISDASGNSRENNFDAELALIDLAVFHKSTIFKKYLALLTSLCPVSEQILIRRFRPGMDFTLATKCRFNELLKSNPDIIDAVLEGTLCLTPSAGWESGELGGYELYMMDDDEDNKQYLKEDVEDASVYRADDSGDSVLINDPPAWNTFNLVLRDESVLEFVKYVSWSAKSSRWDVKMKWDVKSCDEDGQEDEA

SMILES	IC50 (JARID1A (KDM5A))	IC50 (Tpa1p)	IC50 (JARID1A (KDM5A); read-out: IC50 JARID1A (KDM5A))	IC50 (Tpa1p; [1])
O=C(O)CNC(=O)C1C(=O)N(C2CCCCC2)C(=O)N(C2CCCCC2)C1=O [GSK1278863]	> 100 µM	5.1 µM	–	–
O=c1c(-n2ccnn2)c[nH]n1-c1cc(N2CCOCC2)ncn1 [Molidustat]	–	–	> 100 µM	3.8 µM
CC(C)(C)OC(=O)c1ccc(-n2[nH]cc(-n3ccnn3)c2=O)nc1 [IOX4]	–	2.3 µM	53 µM	–
O=C(O)CNC(=O)c1ncc(-c2cccc(Cl)c2)cc1O [Vadadustat]	–	–	> 100 µM	–
Cc1nc(C(=O)NCC(=O)O)c(O)c2ccc(Oc3ccccc3)cc12 [FG-4592]	–	–	> 100 µM	12.8 µM

— article PMC5802278, “Molecular and cellular mechanisms of HIF prolyl hydroxylase inhibitors in clinical trials” (Chemical Science, 2017)
